Measurements: patent publication US5210193A, “Piperazine derivatives” (American Cyanamid Company, priority 1990, dated 1993)
Converted amounts (≈) assume the structure as drawn.

Tests used:
[1] = test system: Proteus rettgeri CMC 84-41; assay: in vitro antibacterial MIC, agar plate dilution; assay type: cell-based; settings: Providencia rettgeri, CMC8441, 18 h, 35° C., read-out: MIC
Method: (§1) The in vitro antimicrobial spectrum of the compounds of ths invention were determined by the agar plate dilution method with Mueller-Hinton agar and an inoculum of each test organism of approximately 10^4 colony forming units delivered by the Steers replicating device. The minimal inhibitory concentration (MIC) in mcg/ml is defined as the lowest concentration of test compound that inhibited visible growth after 18 hours incubation at 35° C. Results are given in Table I, with the test compounds identified by the number of their hereinafter described examples.

[2] = test system: Klebsiella pneumoniae MOR 84-4; assay: in vitro antibacterial MIC, agar plate dilution; assay type: cell-based; settings: Klebsiella pneumoniae, MOR844, 18 h, 35° C., read-out: MIC
Method: as §1

[3] = test system: Enterobacter aerogenes VGH 84-36; assay: in vitro antibacterial MIC, agar plate dilution; assay type: cell-based; settings: Klebsiella aerogenes, VGH8436, 18 hours, 35° C., read-out: MIC
Method: as §1

Klebsiella pneumoniae AD [4] = assay: in vitro antibacterial MIC, agar plate dilution; assay type: cell-based; settings: Klebsiella pneumoniae, 18 h, 35° C., read-out: MIC
Method: as §1

[5] = test system: Pseudomonas aeruginosa VGH 84-4; assay: in vitro antibacterial MIC, agar plate dilution; assay type: cell-based; settings: Pseudomonas aeruginosa, VGH844, 18 h, 35° C., read-out: MIC
Method: as §1

[6] = test system: Staphylococcus aureus Smith; assay: in vitro antibacterial MIC, agar plate dilution; assay type: cell-based; settings: Staphylococcus aureus, 18 h, 35° C., read-out: MIC
Method: as §1

[7] = test system: Escherichia coli ATCC 25922; assay: in vitro antibacterial MIC, agar plate dilution; assay type: cell-based; settings: Escherichia coli, ATCC25922, 18 h, 35° C., read-out: MIC
Method: as §1

[8] = test system: Enterobacter cloacae VGH 84-37; assay: in vitro antibacterial MIC, agar plate dilution; assay type: cell-based; settings: Enterobacter cloacae, VGH8437, 18 h, 35° C., read-out: MIC
Method: as §1

[9] = test system: Streptococcus faecalis ATTC 29212; assay: in vitro antibacterial MIC, agar plate dilution; assay type: cell-based; settings: Enterococcus faecalis, ATTC29212, 18 hours, 35° C., read-out: MIC
Method: as §1

[10] = test system: Escherichia coli CMC 84-11; assay: in vitro antibacterial MIC, agar plate dilution; assay type: cell-based; settings: Escherichia coli, CMC8411, 18 h, 35° C., read-out: MIC
Method: as §1

[11] = test system: Staphylococcus aureus ATCC 25913; assay: in vitro antibacterial MIC, agar plate dilution; assay type: cell-based; settings: ATCC25913, 18 hours, 35° C.
Method: as §1

[12] = test system: Morganella morganii VGH 84-11; assay: in vitro antibacterial MIC, agar plate dilution; assay type: cell-based; settings: VGH8411, 18 hours, 35° C., read-out: MIC
Method: as §1

Klebsiella pneumoniae AD [13] = assay: in vivo antibacterial activity, survival of infected mice (Table II); set-up: species or system Charles River CD-1 mice; settings: subcutaneous
Method: Charles River CD-1 mice were infected with either Klebsiella pneumoniae AD or Staphylococcus aureus Smith. A single subcutaneous dose of the test compound was administered 1/2 hour after infection. […] The results appear in Tables II and III, wherein the representative test compounds are identified by the number of their hereinafter described examples.

Structure (SMILES)	MIC [1] [µg/mL]	MIC [2] [µg/mL]	MIC [3] [µg/mL]	MIC (Klebsiella pneumoniae AD [4]) [µg/mL]	MIC [5] [µg/mL]	MIC [6] [µg/mL]	MIC [7] [µg/mL]	MIC [8] [µg/mL]	MIC [9] [µg/mL]	MIC [10] [µg/mL]	MIC [11] [µg/mL]	MIC [12] [µg/mL]	Survival Ratio 7 Days After Infection (Klebsiella pneumoniae AD [13]; 0.25 mg/kg single dose)	Survival Ratio 7 Days After Infection (Klebsiella pneumoniae AD [13]; 1 mg/kg single dose)	Survival Ratio 7 Days After Infection (Klebsiella pneumoniae AD [13]; 4 mg/kg single dose)	Survival Ratio 7 Days After Infection (Klebsiella pneumoniae AD [13]; 16 mg/kg single dose)	Survival Ratio 7 Days After Infection (Klebsiella pneumoniae AD [13]; 64 mg/kg single dose)
CCn1cc(C(=O)O)c(=O)c2cc(F)c(N3CCNC(CN4CCN(C)CC4)C3)cc21 (stereo not shown) [Example 4, 1-Ethyl-6-fluoro 1,4-dihydro-7-[3-[(4-methyl-1-piperazinyl)methyl]-1-piperazinyl]-4-oxo-3-quinolinecarboxylic acid]	32 (≈ 74.2 µM)	16 (≈ 37.1 µM)	16 (≈ 37.1 µM)	8 (≈ 18.5 µM)	64 (≈ 148 µM)	8 (≈ 18.5 µM)	8 (≈ 18.5 µM)	4 (≈ 9.27 µM)		8 (≈ 18.5 µM)	64 (≈ 148 µM)	4 (≈ 9.27 µM)	0/5	0/5	4/5	5/5	5/5
CCn1cc(C(=O)O)c(=O)c2cc(F)c(N3CCNC(c4ccn(S(=O)(=O)c5ccccc5)c4)C3)cc21 (stereo not shown) [Example 44, 1-Ethyl-6-fluoro-1,4-dihydro-4-oxo-7-[3-[1-(phenylsulfonyl)-1H-pyrrol-3-yl]-1-piperazinyl]-3-quinolinecarboxylic acid]	4 (≈ 7.63 µM)	8 (≈ 15.3 µM)	16 (≈ 30.5 µM)	4 (≈ 7.63 µM)	> 256	0.25 (≈ 0.477 µM)	2 (≈ 3.81 µM)	4 (≈ 7.63 µM)	4 (≈ 7.63 µM)	4 (≈ 7.63 µM)	0.5 (≈ 0.953 µM)	4 (≈ 7.63 µM)					
CCn1cc(C(=O)O)c(=O)c2cc(F)c(N3CCN(C)C(CF)C3)cc21 (stereo not shown) [Example 25, 1-Ethyl-6-fluoro-7-[3-(fluoromethyl)-4-methyl-1-piperazinyl]-1,4-dihydro-4-oxo-3-quinolinecarboxylic acid]	1 (≈ 2.74 µM)	1 (≈ 2.74 µM)	2 (≈ 5.47 µM)	0.5 (≈ 1.37 µM)	2 (≈ 5.47 µM)	0.5 (≈ 1.37 µM)	0.25 (≈ 0.684 µM)	1 (≈ 2.74 µM)	8 (≈ 21.9 µM)	0.5 (≈ 1.37 µM)	0.5 (≈ 1.37 µM)	1 (≈ 2.74 µM)					
CCn1cc(C(=O)O)c(=O)c2cc(F)c(N3CCNC(c4sc5ccc(Cl)cc5c4C)C3)cc21 (stereo not shown) [Example 20, 7-[3-(5-Chloro-3-methylbenzo[b]thien-2-yl)-1-piperazinyl]-1-ethyl-6-fluoro-1,4-dihydro-4-oxo-3-quinolinecarboxylic acid]	> 256	> 256	> 256	> 256	> 256	> 256	> 256	> 256	> 256	> 256	> 256	> 256					

Further molecules by falling MIC [1], results first:

MIC [1] [µg/mL]	MIC [2] [µg/mL]	MIC [3] [µg/mL]	MIC (Klebsiella pneumoniae AD [4]) [µg/mL]	MIC [5] [µg/mL]	MIC [6] [µg/mL]	MIC [7] [µg/mL]	MIC [8] [µg/mL]	MIC [9] [µg/mL]	MIC [10] [µg/mL]	MIC [11] [µg/mL]	MIC [12] [µg/mL]	Structure (SMILES)	Survival Ratio 7 Days After Infection (Klebsiella pneumoniae AD [13]; 0.25 mg/kg single dose)	Survival Ratio 7 Days After Infection (Klebsiella pneumoniae AD [13]; 1 mg/kg single dose)	Survival Ratio 7 Days After Infection (Klebsiella pneumoniae AD [13]; 4 mg/kg single dose)	Survival Ratio 7 Days After Infection (Klebsiella pneumoniae AD [13]; 16 mg/kg single dose)	Survival Ratio 7 Days After Infection (Klebsiella pneumoniae AD [13]; 64 mg/kg single dose)
256 (≈ 475 µM)	256 (≈ 475 µM)	256 (≈ 475 µM)	64 (≈ 119 µM)	> 256	0.5 (≈ 0.928 µM)	32 (≈ 59.4 µM)	256 (≈ 475 µM)	64 (≈ 119 µM)	64 (≈ 119 µM)	1 (≈ 1.86 µM)	256 (≈ 475 µM)	CCn1cc(C(=O)O)c(=O)c2cc(F)c(N3CCN(C)C(c4ccn(S(=O)(=O)c5ccccc5)c4)C3)cc21 (stereo not shown) [Example 49]					
0.5 (≈ 1.15 µM)	1 (≈ 2.3 µM)	1 (≈ 2.3 µM)	0.5 (≈ 1.15 µM)	8 (≈ 18.4 µM)	≤ 0.12	0.25 (≈ 0.574 µM)	0.5 (≈ 1.15 µM)	1 (≈ 2.3 µM)	0.25 (≈ 0.574 µM)	≤ 0.12	0.5 (≈ 1.15 µM)	CCn1cc(C(=O)O)c(=O)c2cc(F)c(N3CCNC(c4cc5ccccc5o4)C3)cc21 (stereo not shown) [Example 46, 7-[3-(2-Benzofuranyl)-1-piperazinyl]-1-ethyl-6-fluoro-1,4-dihydro-4-oxo-3-quinolinecarboxylic acid]					
